Assay results as given in US5521293A (Lever Brothers Company, Division of Conopco, Inc., priority 1995, dated 1996).
Where two headings read alike, the source gives them in different places.

Experiments:
[1] = cited from earlier work
[2] = Area per molecule at the interface; type: physicochemical; settings: 60° C., estimated by linear extrapolation
Source text: The area per molecule of a surfactant at the water/air interface provides information on the degree of packing and the orientation of the adsorbed surfactant molecule. While not wishing to be bound by theory, it is believed that surfactants that have small area per molecule values tend to pack more closely at the interface than those with large area per molecule values. From the surface excess concentration at surface saturation (Γmax), the area per molecule (am) of C8 /C10 oxypropyl D-gluconamide was determined and is given by:
am =1×10^16 /Nav Γmax
Γmax =-1/2·303RT(∂γ/∂log[Conc])T
NAV =6.0221×10^23 per gram mole (Avogadro's Number)
The area per molecule (am) of several surfactants were-determined and are set forth below: […]

[3] = Effectiveness of adsorption at the interface (surface excess concentration at surface saturation); type: physicochemical; settings: 60° C., estimated by linear extrapolation
Source text: The surface excess concentration at surface saturation (Γmax) is defined as a measure of the effectiveness of surfactant adsorption at the water/air interface and represents the maximum value to which adsorption can be obtained. Effectiveness of adsorption is related to the interfacial area occupied by the surfactant molecule. The smaller the effective cross-sectional area of a surfactant at the interface, the greater its effectiveness of adsorption. The effectiveness of adsorption is an important factor in determining surfactant properties such as detergency, foaming, wetting or emulsification. While not wishing to be bound by theory, it is believed that surfactants that absorb effectively at the interface tend have tightly packed coherent interfacial films and often provide better surfactant benefits than those with loosely packed noncoherent films. The effectiveness of adsorption of C8 /C10 oxypropyl D-gluconarnide was determined using the Gibbs equation given as:
Γmax =-1/2.303RT(∂γ/∂log[Conc])T
(∂γ/∂log[Conc)T =-24.574971 ergs/cm^2 (which is equivalent to the
slope of a plot of γ versus log[Conc]) R=8.3 14×10^7 ergs/mol K (Gas Constant)
The surface excess concentration at surface saturation (Γmax) of various surfactants were determined and are set forth below: […]

[4] = cited from earlier work; remark: listed apart in the source
[5] = cited from earlier work; remark: listed apart in the source
[6] = Effectiveness in reducing surface tension (surface pressure at the CMC); type: physicochemical; settings: 60° C., estimated by linear extrapolation
Source text: Effectiveness of a surfactant in reducing surface tension is defined as the maximum reduction in surface tension that can be obtained regardless of the bulk phase surfactant concentration.
As mentioned before, surface tension reduction depends on the replacement of water molecules at the interface by surfactant molecules, therefore the effectiveness of a surfactant in reducing interfacial surface tension should reflect the saturated concentration of surfactant at the interface relative to that in bulk liquid phase. During this process the surface tension of water steadily decreases as bulk phase surfactant concentration increases. This will continue until the concentration reaches the critical micelle concentration (CMC), above which the surface tension remains nearly unchanged and the interface is saturated with surfactant. The surface tension at the CMC is therefore very close to the minimum interfacial tension or maximum surface pressure that the system can achieve. The surface pressure at this point, cmc, is a suitable measure of the effectiveness of a surfactant in reducing surface tension and is given as:
cmc =20+2.3 nRT(Γmax) log[CMC/C20 ]
n=1 which represents the number of ions whose surface concentration changes with the change in liquid phase surfactant concentration.
R=8.314×107 ergs/mol K (Gas Constant)
Γmax =-1/2·303RT(∂γ/∂log [Conc])T=3.85×10^-10 mole/cm^2
CMC/C20 =is the ratio of the critical micelle concentration to the bulk phase surfactant concentration necessary to reduce the surface tension of water by 20 dyn/cm.
The effectiveness of various surfactants in reducing surface tension ( cmc) were determined and are set forth below: […]

[7] = Critical micelle concentration (Wilhelmy plate method); type: physicochemical; settings: 60° C.
Description: The critical micelle concentration (CMC) is defined as the concentration at which a surfactant forms micelles in aqueous solution. Micellization is the preferred interfacial phenomena, since certain surfactant benefits such as detergency (the solubilization of soils), foaming, wetting or emulsification depend on the formation of these aggregates in solution.
The CMC value of C8 /C10 oxypropyl D-gluconamide was determined by plotting surface tension as a function of log(concentration) and extrapolating linear points to obtain an intersection point. The concentration at this point was taken as the CMC. The technique used was the Wilhelmy plate method and the instrument used was a Lauda Auto-Tensiometer. While wishing not to be bound to theory, it is believed that surfactants with low CMC values form micelles more readily at lower concentrations than those with high CMC values.
The critical micelle concentration (CMC) value of C8 /C10 oxypropyl D-gluconamide (molecular weight=375.02 g/mole, 65.9% C8, 34.1% C10) was determined and is set forth below: […]

[8] = Krafft point of aqueous dispersion of aldonamide; type: physicochemical; settings: for Krafft Point (0.1%): 0.1% in water by weight; for Krafft Point (1.0%): 1.0% in water by weight
Description: The temperature at and above which surfactants begin to form micelles instead of precipitates is referred to as the Krafft point (Tk) and at this temperature the solubility of a surfactant becomes equal to its CMC (numerical value at which micelles are formed).
The Krafft point was measured by preparing 650 ml of a 0.1% or 1.0% dispersion of aldonamide in water by weight. If the surfactant was soluble at room temperature, the solution was slowly cooled to 0° C. […] (less than zero). If it precipitated out of solution, the temperature at which precipitation occurs was taken as the Krafft point.
If the surfactant was insoluble at :room temperature, the dispersion was slowly heated until the solution became homogeneous. It was then slowly cooled until precipitation occurred. The temperature at which the surfactant precipitates out of solution upon cooling was taken as the Krafft point.

Ross-Miles foam height [9] = type: physicochemical; design: key: X: low water solubility. foam height cannot be measured; settings: Examples 82-83
Description: (§1) Since most of the foaming data on surfactants is typically obtained by the Ross-Miles Foam Height Assay (Ross, J. and Miles, G. D. Am Soc. for Testing Material Method D1173-63 Philadelphia, Pa. (1953); Oil & Soap (1958) 62:1260) the foaming ability of these surfactants were acquired using this method.
(§2) In the Ross-Miles method, 200 mL of a surfactant solution contained in a pipette of specified dimensions with a 2.9-mm-i.d. orifice is allowed to fall 90 cm onto 50 mL of the same solution contained in a cylindrical vessel maintained at a given temperature by means of a water jacket. The height of the foam produced in the cylindrical vessel is read immediately after all the solution has run out of the pipette and then again after a given amount of time.
(§3) Using this method, the foam production (initial foam height in mm) and foam stability (final foam height after 10 minutes in mm) were measured at 0.1% aldonamide concentration, 40° C. and 0 ppm (parts per million) hardness. Aldonamides that were not soluble at 40° C. were measured at about 5°-10° C. above their Krafft points.

Water solubility = type: physicochemical; settings: in words
Ross-Miles foam height [10] = type: physicochemical; design: key: X: low water solubility, foam height cannot be measured; settings: Example 84; for Foam Height Final (symbol): after 10 minutes
Description: as §1, §2, §3

[11] = listed as Dodecyl D-Gluconamide
[12] = listed as dodecyl D-gluconamide

Compound: CCCCCCCCCCCCOCCOCCOCCOCCOCCOCCOCCO [Dodecylhepta(oxyethylene) Ether]
- surface pressure at the CMC (cmc) ([1]; 25° C.): 38.3 dyn/cm
- surface pressure at the CMC (cmc) ([1]; 40° C.): 38.5 dyn/cm
- area per molecule (am) [2]: 61.0 Å^2
- surface excess concentration at surface saturation (Γmax) [3]: 2.71 × 10^-10 mole/cm^2
- area per molecule (am) ([4]; 25° C.): 57.3 Å^2
- area per molecule (am) ([4]; 40° C.): 59.9 Å^2
- surface excess concentration at surface saturation (Γmax) ([5]; 25° C.): 2.90 × 10^-10 mole/cm^2
- surface excess concentration at surface saturation (Γmax) ([5]; 40° C.): 2.77 × 10^-10 mole/cm^2
- surface pressure at the CMC (cmc) [6]: 36.8 dyn/cm

Compound: CCCCCCCCCCCCOCCOCCOCCOCCOCCOCCOCCOCCO [Dodecylocta(oxyethylene) Ether]
- surface pressure at the CMC (cmc) ([1]; 25° C.): 37.2 dyn/cm
- surface pressure at the CMC (cmc) ([1]; 40° C.): 37.3 dyn/cm
- area per molecule (am) [2]: 69.0 Å^2
- surface excess concentration at surface saturation (Γmax) [3]: 2.40 × 10^-10 mole/cm^2
- area per molecule (am) ([4]; 25° C.): 66.0 Å^2
- area per molecule (am) ([4]; 40° C.): 67.4 Å^2
- surface excess concentration at surface saturation (Γmax) ([5]; 25° C.): 2.52 × 10^-10 mole/cm^2
- surface excess concentration at surface saturation (Γmax) ([5]; 40° C.): 2.46 × 10^-10 mole/cm^2
- surface pressure at the CMC (cmc) [6]: 36.3 dyn/cm

Compound: CCCCCCCCCCCCOCCOCCOCCOCCOCCO [Dodecylpenta(oxyethylene) Ether]
- surface pressure at the CMC (cmc) ([1]; 25° C.): 41.5 dyn/cm
- surface pressure at the CMC (cmc) ([1]; 40° C.): 41.2 dyn/cm
- area per molecule (am) [2]: 52.3 Å^2
- surface excess concentration at surface saturation (Γmax) [3]: 3.16 × 10^-10 mole/cm^2
- area per molecule (am) ([4]; 25° C.): 50.1 Å^2
- area per molecule (am) ([4]; 40° C.): 50.6 Å^2
- surface excess concentration at surface saturation (Γmax) ([5]; 25° C.): 3.31 × 10^-10 mole/cm^2
- surface excess concentration at surface saturation (Γmax) ([5]; 40° C.): 3.28 × 10^-10 mole/cm^2
- surface pressure at the CMC (cmc) [6]: 40.7 dyn/cm

Compound: CCCCCCCCCCCCOCCOCCOCCOCCO [Dodecyltetra(oxyethylene) Ether]
- surface pressure at the CMC (cmc) ([1]; 25° C.): 43.4 dyn/cm
- surface pressure at the CMC (cmc) ([1]; 40° C.): 42.0 dyn/cm
- area per molecule (am) [2]: 53.3 Å^2
- surface excess concentration at surface saturation (Γmax) [3]: 3.01 × 10^-10 mole/cm^2
- area per molecule (am) ([4]; 25° C.): 45.7 Å^2
- area per molecule (am) ([4]; 40° C.): 48.7 Å^2
- surface excess concentration at surface saturation (Γmax) ([5]; 25° C.): 3.63 × 10^-10 mole/cm^2
- surface excess concentration at surface saturation (Γmax) ([5]; 40° C.): 3.41 × 10^-10 mole/cm^2
- surface pressure at the CMC (cmc) [6]: 40.7 dyn/cm

Compound: CCCCCCCCCCCCOCCOCCOCCO [Dodecyltri(oxyethylene) Ether]
- surface pressure at the CMC (cmc) ([1]; 25° C.): 44.1 dyn/cm
- surface pressure at the CMC (cmc) ([1]; 40° C.): 43.1 dyn/cm
- area per molecule (am) [2]: 45.4 Å^2
- surface excess concentration at surface saturation (Γmax) [3]: 3.83 × 10^-10 mole/cm^2
- area per molecule (am) ([4]; 25° C.): 41.7 Å^2
- area per molecule (am) ([4]; 40° C.): 42.5 Å^2
- surface excess concentration at surface saturation (Γmax) ([5]; 25° C.): 3.98 × 10^-10 mole/cm^2
- surface excess concentration at surface saturation (Γmax) ([5]; 40° C.): 3.90 × 10^-10 mole/cm^2
- surface pressure at the CMC (cmc) [6]: 41.4 dyn/cm

Compound: CCCCCCCCCCCCNC(=O)[C@H](O)[C@@H](O)[C@H](O)[C@H](O)CO [H, Dodecyl D-Gluconamide]
- CMC / micelle formation (in words) [7, 11]: None
- CMC / micelle formation (in words) [7, 12]: can not form micelles
- Krafft Point (0.1%) [8]: 91 °C
- Foam Height Final (symbol) (Ross-Miles foam height [9]; after 10 minutes): X
- Foam Height Initial (symbol) (Ross-Miles foam height [9]; initial): X
- water solubility (Water solubility; [11]): Insoluble
- water solubility (Water solubility; [12]): insoluble in water

Compound: CCCCCCCCCCCCNC(=O)[C@H](O)[C@H](O)[C@@H](O)[C@@H](O)CO [L, C12 L-Mannonamide]
- Krafft Point (0.1%) [8]: > 100 °C
- water solubility (Water solubility): Insoluble

Compound: CCCCCCCCCCCCCCCNC(=O)[C@H](O)[C@@H](O)[C@H](O[C@@H]1O[C@H](CO)[C@H](O)[C@H](O)[C@H]1O)[C@H](O)CO [SS, C15 D-Lactobionamide]
- Foam Height Final (symbol) (Ross-Miles foam height [10]): X
- Foam Height Initial (symbol) (Ross-Miles foam height [10]): X
- Krafft Point (1.0%) [8]: 84 °C

Compound: CCCCCCCCCCCCCCCCCCNC(=O)[C@H](O)[C@@H](O)[C@H](O[C@@H]1O[C@H](CO)[C@H](O)[C@H](O)[C@H]1O)[C@H](O)CO [UU, C18 D-Lactobionamide]
- Foam Height Final (symbol) (Ross-Miles foam height [10]): X
- Foam Height Initial (symbol) (Ross-Miles foam height [10]): X
- Krafft Point (1.0%) [8]: 82 °C
